Experimental data from patent US12486251B2 (PHARMABLOCK SCIENCES (NANJING) , INC., priority 2020, dated 2025).

target: CBP recombinant proteins (Homo sapiens (Human), UniProt Q92793); assay: Competitive HTRF assay for affinity to CBP recombinant protein; format: binding; settings: His-tagged CBP 5 nM, biotin-labeled ligand 50 nM, 1% DMSO
Protocol: The affinity of the compounds synthesized in the present patert to the CBP recombinant proteins was determined by competitive HTRF method. His-tagged cyclic adenosine monophosphate response element binding protein (CREB-binding protein, CBP) was expressed in Escherichia coli system and further purified. CBP biotinylated ligands were all self-made. The BL21 star (DE3) competert cells transfected with His-tagged CBP protein genes at N-terminal were cultured at 37° C. for 16 h until the OD value was between 0.6 and 0.8, induced by 0.5 mM of IPTG and cultured overnight. The supernatant of cell lysate was purified by a Ni-ion affinity column and a Superdex75 molecular sieve column sequentially. The purity of resulting CBP proteins was 95%. The fluorescent donor reagent MAb Anti 6HIS—Eu cryptate Gold (Cisbio #61HI2KLA), the receptor reagent Streptavidin-XL665 (#610SAXLA) and the detection buffer (#62SDBRDD) required for HTRF were obtained from CISBIO BIOASSAYS (Codolet, France). Tris(2-carboxyethyl)phosphine hydrochloride (TCEP), sodium chloride, adenosine triphosphate (ATP), Tween-20, dimethylsulfoxide (DMSO), bovine serum albumin (BSA) and HEPES buffer were obtained from SIGMA at the highest level commercially available.
The general procedure of the competitive HTRF assay for the affinity to CBP recombinant proteins is as follows: 0.05% Tween-20 and 1 mM of TCEP were added immediately before the assay, and the assay was performed in a buffer consisting of 0.1 mg/ml BSA, 50 mM of HEPES and 5 mM of NaCl of pH 7.5. 2.5 μL of compound solution in a determination buffer with 4% DMSO and 5 μL of CBP solution in a determination buffer were added to a white low-volume 384-well microtiter plate, incubated at room temperature for 20 min, and then incubated at room temperature for 40 min by adding 2.5 μL of biotin-labeled ligand solution to the determination buffer. The final concentrations of CBP, biotin-labeled ligand and DMSO were 5 nM, 50 nM and 1%, respectively. Then, 5 μL of MAb Anti 6HIS—Eu cryptate Gold and […] of Streptavidin-XL665 in detection buffers from the manufacturer were added to the mixture, and the mixture was incubated for another 60 min. The final concentration of Streptavidin-XL665 was 12.5 nM, and MAb Anti 6HIS—Eu cryptate Gold was diluted according to the final concentration provided by the supplier. The multimode reader Spark from TECAN (Mannedorf, Switzerland) was used to read the plate to detect the homogeneous time-resolved fluorescence intensity of two groups, in which the excitation wavelength was 320 nm and the emission wavelengths were 665 nm and 620 nm. The IC50 value of the inhibitor was obtained by fitting fluorescence intensity ratios at 665 nm/620 nm with respect to the inhibitor concentration in an S-shaped dose-response curve by using Prism 7 (La Jolla, 15 CA).

Chain of CBP recombinant proteins (Q92793 whole entry): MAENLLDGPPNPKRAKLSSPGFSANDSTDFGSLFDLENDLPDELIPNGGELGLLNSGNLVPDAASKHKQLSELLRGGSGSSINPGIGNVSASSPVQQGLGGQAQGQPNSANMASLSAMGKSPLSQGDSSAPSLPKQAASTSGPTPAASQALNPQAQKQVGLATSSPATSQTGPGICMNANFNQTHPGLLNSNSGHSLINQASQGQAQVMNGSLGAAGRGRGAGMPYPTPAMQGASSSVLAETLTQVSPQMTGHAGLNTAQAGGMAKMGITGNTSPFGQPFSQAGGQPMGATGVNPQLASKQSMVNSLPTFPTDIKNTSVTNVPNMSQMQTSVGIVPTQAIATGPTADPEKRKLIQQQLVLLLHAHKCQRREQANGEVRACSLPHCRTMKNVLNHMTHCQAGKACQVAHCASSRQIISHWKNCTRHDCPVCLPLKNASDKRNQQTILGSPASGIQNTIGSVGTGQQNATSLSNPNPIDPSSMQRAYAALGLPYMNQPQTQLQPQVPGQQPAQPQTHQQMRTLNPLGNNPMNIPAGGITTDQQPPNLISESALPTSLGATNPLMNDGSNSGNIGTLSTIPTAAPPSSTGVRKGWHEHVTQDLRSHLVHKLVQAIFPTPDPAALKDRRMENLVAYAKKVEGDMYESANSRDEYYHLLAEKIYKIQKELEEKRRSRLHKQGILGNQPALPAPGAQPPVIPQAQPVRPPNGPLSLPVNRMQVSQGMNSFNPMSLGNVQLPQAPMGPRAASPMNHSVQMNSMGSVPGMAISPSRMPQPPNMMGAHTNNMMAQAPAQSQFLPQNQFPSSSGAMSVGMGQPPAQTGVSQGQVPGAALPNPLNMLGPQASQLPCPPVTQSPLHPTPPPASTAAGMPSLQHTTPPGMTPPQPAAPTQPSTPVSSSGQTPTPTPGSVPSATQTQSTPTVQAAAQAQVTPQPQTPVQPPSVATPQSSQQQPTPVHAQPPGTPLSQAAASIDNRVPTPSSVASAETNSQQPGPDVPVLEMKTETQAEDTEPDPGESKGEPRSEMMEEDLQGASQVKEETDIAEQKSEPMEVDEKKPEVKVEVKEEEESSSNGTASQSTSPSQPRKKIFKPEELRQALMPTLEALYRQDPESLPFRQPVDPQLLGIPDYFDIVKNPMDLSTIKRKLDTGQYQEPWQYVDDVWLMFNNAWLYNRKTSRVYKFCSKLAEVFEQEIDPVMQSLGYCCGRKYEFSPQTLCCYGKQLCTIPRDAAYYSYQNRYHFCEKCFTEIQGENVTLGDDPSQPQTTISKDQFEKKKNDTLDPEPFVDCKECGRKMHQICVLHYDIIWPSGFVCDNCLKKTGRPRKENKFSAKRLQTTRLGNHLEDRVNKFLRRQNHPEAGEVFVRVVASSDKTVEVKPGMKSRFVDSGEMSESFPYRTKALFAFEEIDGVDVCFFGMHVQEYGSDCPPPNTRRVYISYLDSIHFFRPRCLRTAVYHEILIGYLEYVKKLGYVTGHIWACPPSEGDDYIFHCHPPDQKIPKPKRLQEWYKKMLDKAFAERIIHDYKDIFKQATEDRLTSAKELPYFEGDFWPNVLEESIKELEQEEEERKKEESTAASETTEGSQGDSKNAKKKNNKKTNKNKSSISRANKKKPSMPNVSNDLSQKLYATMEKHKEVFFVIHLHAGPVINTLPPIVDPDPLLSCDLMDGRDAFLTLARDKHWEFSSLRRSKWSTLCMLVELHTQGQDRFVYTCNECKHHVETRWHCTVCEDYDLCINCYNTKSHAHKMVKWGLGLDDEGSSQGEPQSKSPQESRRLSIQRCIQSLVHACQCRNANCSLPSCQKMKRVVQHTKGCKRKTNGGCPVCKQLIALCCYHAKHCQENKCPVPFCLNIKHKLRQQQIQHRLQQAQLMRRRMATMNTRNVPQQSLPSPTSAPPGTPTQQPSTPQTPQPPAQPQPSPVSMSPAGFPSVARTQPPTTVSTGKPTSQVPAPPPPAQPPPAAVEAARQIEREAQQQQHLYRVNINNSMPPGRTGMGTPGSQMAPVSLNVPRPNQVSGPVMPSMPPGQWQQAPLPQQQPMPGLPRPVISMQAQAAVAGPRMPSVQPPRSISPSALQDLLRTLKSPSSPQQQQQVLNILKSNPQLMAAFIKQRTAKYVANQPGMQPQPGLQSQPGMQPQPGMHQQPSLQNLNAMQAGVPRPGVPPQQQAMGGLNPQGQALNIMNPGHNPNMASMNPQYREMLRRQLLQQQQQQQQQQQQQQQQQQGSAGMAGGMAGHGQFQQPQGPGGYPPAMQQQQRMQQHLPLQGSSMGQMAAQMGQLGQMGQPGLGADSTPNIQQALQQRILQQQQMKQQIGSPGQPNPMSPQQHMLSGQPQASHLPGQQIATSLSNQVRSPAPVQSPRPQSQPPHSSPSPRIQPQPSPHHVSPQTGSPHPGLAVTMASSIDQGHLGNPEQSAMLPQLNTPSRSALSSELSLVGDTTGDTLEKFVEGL

Row | SMILES | IC50
1 | CNC(=O)c1cc2cc(N3CCCS3(=O)=O)ccc2c(N2CCCc3cc(-c4cnn(C)c4)c(C(F)F)cc32)n1 [Example 26, 1-(7-(difluoromethyl)-6-(1-methyl-1H-pyrazol-4-yl)-3,4-dihydroquinolin-1(2H)-yl)-6-(1,1-dioxyisothiazolidin-2-yl)-N-methyliso-quinoline-3-carboxamide] | 11 nM
2 | CNC(=O)c1cc2cc(N3CCN(C)CC3=O)ccc2c(N2CCCc3cc(-c4cnn(C)c4)c(C(F)F)cc32)n1 [Example 27, 1-[7-difluoromethyl-6-(1-methyl-1H-pyrazol-4-yl)-3,4-dihydro-2H-quinolin-1-yl]-6-(4-methyl-2-oxo-piperazin-1-yl)-isoquinoline-3-carboxylic acid methylamide] | 3.3 nM
3 | CNC(=O)c1cc2cc(N3CCOCC3=O)ccc2c(N2CCCc3cc(-c4cnn(C)c4)c(C(F)F)cc32)n1 [Example 28, 1-[7-difluoromethyl-6-(1-methyl-1H-pyrazol-4-yl)-3,4-dihydro-2H-quinolin-1-yl]-6-(3-oxo-morpholin-4-yl)-isoquinoline-3-carboxylic acid methylamide] | 5.3 nM
4 | CNC(=O)c1cc2cc(C3CCCO3)ccc2c(N2CCCc3cc(-c4cnn(C)c4)c(C(F)F)cc32)n1 (stereo not shown) [Example 29, 1-[7-difluoromethyl-6-(1-methyl-1H-pyrazol-4-yl)-3,4-dihydro-2H-quinolin-1-yl]-6-(tetrahydrofuran-2-yl)-isoquinoline-3-carboxylic acid methylamide] | 16 nM
5 | CNC(=O)c1cc2ccccc2c(N2CCCc3cc(-c4cncnc4)c(C(F)F)cc32)n1 [Example 30, 1-(7-difluoromethyl-6-pyrimidine-5-yl-3,4-dihydro-2H-quinolin-1-yl)-isoquinoline-3-carboxylic acid methylamide] | 22 nM
6 | CNC(=O)c1cc2ccccc2c(N2CCCc3cc(C4=CCOCC4)c(C(F)F)cc32)n1 [Example 31, 1-[7-difluoro-methyl-6-(3,6-dihydro-2H-pyran-4-yl)-3,4-dihydro-2H-quino-lin-1-yl]-iso-quinoline-3-carboxylic acid methylamide] | 49 nM
7 | CCn1cc(-c2cc3c(cc2C(F)F)N(c2nc(C(=O)NC)cc4ccccc24)CCC3)cn1 [Example 32, 1-[7-difluoro-methyl-6-(1-ethyl-1H-pyrazol-4-yl)-3,4-dihydro-2H-quinolin-1-yl]-isoquino-line-3-carboxylic acid methylamide] | 36 nM
8 | CNC(=O)c1cc2ccccc2c(N2CCCc3cc(-c4cnn(C5CC5)c4)c(C(F)F)cc32)n1 [Example 33, 1-[6-(1-cyclo-propyl-1H-pyrazol-4-yl)-7-difluoromethyl-3,4-dihydro-2H-quino-lin-1-yl]-iso-quinoline-3-carboxylic acid methylamide] | 44 nM
9 | CNC(=O)c1cc2ccccc2c(N2CCCc3cc(-c4ccn(C)n4)c(C(F)F)cc32)n1 [Example 34, 1-[7-difluoro-methyl-6-(1-methyl-1H-pyrazol-3-yl)-3,4-dihydro-2H-quinolin-1-yl]-isoquinoline-3-carboxylic acid methylamide] | 32 nM
10 | CNC(=O)c1cc2ccccc2c(N2CCCc3cc(-c4cnn(CCO)c4)c(C(F)F)cc32)n1 [Example 35] | 16 nM
11 | CNC(=O)c1cc2cccnc2c(N2CCCc3cc(-c4cncnc4)c(C(F)F)cc32)n1 [Example 37, 8-(7-difluoro-methyl-6-pyrimidine-5-yl-3,4-dihydro-2H-quinolin-1-yl)-[1,7] naphthyridine-6-carboxylic acid methylamide] | 16 nM
12 | CNC(=O)c1cc2cccnc2c(N2CCCc3cc(-c4cnn(CS(C)(=O)=O)c4)c(C(F)F)cc32)n1 [Example 38, 8-[7-difluoro-methyl-6-(1-methanesulfonyl-methyl-1H-pyrazol-4-yl)-3,4-dihydro-2H-quinolin-1-yl]-[1,7] naphthyridine-6-carboxylic acid methylamide] | 14 nM
13 | CNC(=O)c1cc2cccnc2c(N2CCCc3cc(-c4ccnnc4)c(C(F)F)cc32)n1 [Example 39, 8-(7-difluoro-methyl-6-pyrida-zine-4-yl-3,4-dihydro-2H-quinolin-1-yl)-[1,7] naphthyridine-6-carboxylic acid methylamide] | 13 nM
14 | CNC(=O)c1cc2ccccc2c(N2CCC(NC)c3cc(-c4cnn(C)c4)ccc32)n1 (stereo not shown) [Example 40, 1-[4-methylamino-6-(1-methyl-1H-pyrazol-4-yl)-3,4-dihydro-2H-quinolin-1-yl]-isoquinoline-3-carboxylic acid methylamide] | 62 nM
15 | CNC(=O)c1cc2ccccc2c(N2CCC(O)c3cc(-c4cnn(C)c4)ccc32)n1 (stereo not shown) [Example 41, 1-[4-hydroxy-6-(1-methyl-1H-pyrazol-4-yl)-3,4-dihydro-2H-quinolin-1-yl]isoquinoline-3-carboxylic acid methylamide] | 57 nM
16 | CNC(=O)c1cc2ccccc2c(N2CCCc3cc(C4=CCNCC4)c(C(F)F)cc32)n1 [Example 42] | 50 nM
17 | CNC(=O)c1cc2cccnc2c(N2CCCc3cc(C4=CCN(C(C)=O)CC4)c(C(F)F)cc32)n1 [Example 43, 8-[6-(1-acetyl-1,2,3,6-tetrahydropyridin-4-yl)-7-difluoromethyl-3,4-dihydro-2H-quinolin-1-yl]-[1,7]naphthyridine-6-carboxylic acid methylamide] | 6.7 nM
18 | CNC(=O)c1cc2cccnc2c(N2CCCc3cc(C4=CCN(C)CC4)c(C(F)F)cc32)n1 [Example 44, 8-[7-difluoromethyl-6-(1-methyl-1,2,3,6-tetrahydropyridin-4-yl)-3,4-dihydro-2H-quinolin-1-yl]-[1,7]naphthyridine-6-carboxylic acid methylamide] | 64 nM
19 | CNC(=O)c1cc2cccnc2c(N2CCCc3cc(C4=CCN(S(C)(=O)=O)CC4)c(C(F)F)cc32)n1 [Example 45, 8-[7-difluoromethyl-6-(1-methanesulfonyl-1,2,3,6-tetrahydropyridin-4-yl)-3,4-dihydro-2H-quinolin-1-yl]-[1,7]naphthyridine-6-carboxylic acid methylamide] | 8.5 nM
20 | CNC(=O)c1cc2cccnc2c(N2CCCc3cc(C4CCN(C(C)=O)CC4)c(C(F)F)cc32)n1 [Example 46, 8-[6-(1-acetylpiperidin-4-yl)-7-difluoromethyl-3,4-dihydro-2H-quinolin-1-yl]-[1,7]naphthyridine-6-carboxylic acid methylamide] | 5.4 nM
21 | CNC(=O)c1cc2ncccc2c(N2CCCc3cc(C4CCN(C(C)=O)CC4)c(C(F)F)cc32)n1 [Example 47, 5-[6-(1-acetylpiperidin-4-yl)-7-difluoro-methyl-3,4-dihydro-2H-quinolin-1-yl]-[1,6] naphthyridine-7-carboxylic acid methylamide] | 31 nM
22 | CNC(=O)c1cc2cnccc2c(N2CCCc3cc(C4CCN(C(C)=O)CC4)c(C(F)F)cc32)n1 [Example 48, 1-[6-(1-acetylpiperidin-4-yl)-7-difluoro-methyl-3,4-dihydro-2H-quinolin-1-yl]-[2,6] naphthyridine-3-carboxylic acid methylamide] | 13 nM
23 | CNC(=O)c1cc2ccncc2c(N2CCCc3cc(C4CCN(C(C)=O)CC4)c(C(F)F)cc32)n1 [Example 49, 1-[6-(1-acetylpiperidin-4-yl)-7-difluoro-methyl-3,4-dihydro-2H-quinolin-1-yl]-[2,7] naphthyridine-3-carboxylic acid methylamide] | 12 nM
24 | CNC(=O)c1cc2cc(Cl)cnc2c(N2CCCc3cc(C4CCN(C(C)=O)CC4)c(C(F)F)cc32)n1 [Example 50, 8-[6-(1-acetylpiperidin-4-yl)-7-difluoro-methyl-3,4-dihydro-2H-quinolin-1-yl]-3-chloro-[1,7] naphthyridine-6-carboxylic acid methylamide] | 54 nM
25 | CNC(=O)c1cc2cc(OC)cnc2c(N2CCCc3cc(C4CCN(C(C)=O)CC4)c(C(F)F)cc32)n1 [Example 51, 8-[6-(1-acetylpiperidin-4-yl)-7-difluoro-methyl-3,4-dihydro-2H-quinolin-1-yl]-3-methoxy-[1,7] naphthyridine-6-carboxylic acid methylamide] | 22 nM
